Legend:
Assay type in all cases: cell-based, human
gut microbes = assay: gas production: samples from the proximal colon vessel of the SHIME treated with lactose or 2′-FL in a penicillin tube; conditions: for gas production between 6-24 h (rank): 6-24 h timeframe, Lactose versus 2′FL; for gas production at 48 h (gaz pressure): 48 h incubation
Method: Gas production is a measure of fermentative activity by gut microbes. […] Gas production is not monitored in the long-term SHIME® model, given its regular flushing with N2 (to ensure anaerobiosis). Therefore, gas production was evaluated by collecting samples from the proximal colon vessel of the SHIME and treating them with lactose or 2′-FL in a penicillin tube. It was then incubated for 24 h and 48 h. The gas formation was assessed in those tubes.

[1] = tested on: gut microbiota of an infant; assay: long term SHIME experiment with infant fecal samples (Example 1); conditions: for Actinobacteria population (Abundance), colon model / butyrate concentration in colon model: Infant; for increase of butyrate production: infant gut microbiota, three weeks of treatment
Method: (§1) The model of the human gastrointestinal tract used was the SHIME®. The first two reactors are of the fill-and-draw principle to simulate different steps in food uptake and digestion, with peristaltic pumps adding a defined amount of SHIME® feed (140 mL 3×/day) and pancreatic and bile liquid (60 mL 3×/day), respectively to the stomach and small intestine compartment and emptying the respective reactors after specified intervals. The last three compartments simulate the large intestine. The SHIME® experiment for this study consisted of three stages: • Stabilization period: After inoculation of the colon reactors with a fresh faecal sample, a two-week stabilization period allowed the microbial community to differentiate in the different reactors depending on the local environmental conditions. During this period a basic nutritional matrix was provided to the SHIME to support the optimum diversity of the gut microbiota originally present in the faecal inoculum. • Control period: During this two-week reference period, the standard SHIME® nutrient matrix was further added to the model for a period of 14 days. Analysis of samples in this period allows to determine the baseline microbial community composition and activity in the different reactors, which will be used as a reference for evaluating the treatment effects. • Treatment period: During this three-week period, the SHIME® reactor was operated under nominal conditions, but with a diet supplemented with the 2′FL product on top of the normal composition. The diet supplemented with 2′FL was administered 3 times a day at a concentration of 1% SCFA Production were Measured Three Times Per Week Throughout the Experiment

[2] = tested on: gut microbiota of a toddler; assay: long term SHIME experiment with toddler samples (Example 1); conditions: for Actinobacteria population (Abundance), colon model / butyrate concentration in colon model: Toddler; for increase of butyrate production: young child, three weeks of treatment
Method: as §1

[3] = tested on: gut microbiota of a toddler; assay: long term SHIME experiment, comparison of different HMOs blends in toddler (Example 2)
Method: The model of the human gastrointestinal tract used was the SHIM ED. The first two reactors are of the fill-and-draw principle to simulate different steps in food uptake and digestion, with peristaltic pumps adding a defined amount of SHIME feed (140 mL 3×/day) and pancreatic and bile liquid (60 mL 3×/day), respectively to the stomach and small intestine compartment and emptying the respective reactors after specified intervals. The last three compartments simulate the large intestine. The SHIME® experiment for this study consisted of three stages: • Stabilization period: After inoculation of the colon reactors with a fresh faecal sample, a two-week stabilization period allowed the microbial community to differentiate in the different reactors depending on the local environmental conditions. During this period a basic nutritional matrix was provided to the SHIME to support the optimum diversity of the gut microbiota originally present in the faecal inoculum. • Control period: During this two-week reference period, the standard SHIME nutrient matrix was further added to the model for a period of 14 days. Analysis of samples in this period allows to determine the baseline microbial community composition and activity in the different reactors, which will be used as a reference for evaluating the treatment effects. • Treatment period: During this three-week period, the SHIME reactor was operated under nominal conditions, but with a diet supplemented with the 2′FL product on top of the normal composition or with the mixtures HMO-3 or HMO-5. The diet supplemented with HMOs administered 3 times a day at a concentration of 1%. In this experiment, also branched SCFA (b-SCFA=sum of isobutyrate, isovalerate and isocaproate) were measured which result from protein degradation and reflect proteolytic activity of the gut microbiota. A significant alterations in those metabolites was shown in fecal extracts from patients with colon cancer compared to controls Ref: Le Gall 2018 (Oncotarget, 2018, Vol. 9, (No. 70), pp: 33278-33289)

[4] = treatment week 1, diet with 1% 2′FL 3 times a day
[5] = treatment week 2, diet with 1% 2′FL 3 times a day
[6] = treatment week 3, diet with 1% 2′FL 3 times a day
[7] = distal colon, treatment week 3, diet with 1% HMOs 3 times a day

2′-fucosyllactose [2′-FL]
gas production between 6-24 h (rank) (gut microbes): lowest | gas production at 48 h (gaz pressure) (gut microbes; Infant): 31.8 kPA | gas production at 48 h (gaz pressure) (gut microbes; Toddler): 49.9 kPA | gas production over 48 hours as compared to Lactose (gut microbes; both toddler and infant, 48 hours): less gas production | increase in gas production corresponding to accelerated butyrate production (gut microbes; toddlers): no corresponding increase in gas production | Actinobacteria population (Abundance), colon model ([1]; treatment week 1): 31.8% | butyrate concentration in colon model [1, 4]: 13.75 mM/m1 | Actinobacteria population (Abundance), colon model ([1]; treatment week 2): 46.3% | butyrate concentration in colon model [1, 5]: 15.85 mM/m1 | Actinobacteria population (Abundance), colon model ([1]; treatment week 3): 43.5% | butyrate concentration in colon model [1, 6]: 20.3 mM/m1 | increase in butyrate, onset of effect ([1]; infant fecal samples, over the weeks of treatment): more gradual | increase of butyrate production ([1]; Distal Colon): 54% | increase of butyrate production ([1]; Proximal Colon): 81% | Actinobacteria population (Abundance), colon model ([2]; treatment week 1): 49.9% | butyrate concentration in colon model [2, 4]: 28.1 mM/m1 | Actinobacteria population (Abundance), colon model ([2]; treatment week 2): 53% | butyrate concentration in colon model [2, 5]: 30.2 mM/m1 | Actinobacteria population (Abundance), colon model ([2]; treatment week 3): 52.2% | butyrate concentration in colon model [2, 6]: 30.3 mM/m1 | butyrate concentration in the colon, onset of effect ([2]; toddler samples): immediate increase | butyrate concentrations, course through the treatment period ([2]; toddler samples): relatively stable | effect on Actinobacteria phylum mainly composed of Bifidobacteria ([2]; toddlers): immediate effect | increase of butyrate production ([2]; Distal Colon): 156% | increase of butyrate production ([2]; Proximal Colon): 192% | butyrate production in the colon, onset of effect [3]: immediate increase | BCFA production in toddler [3, 7]: 3.1 mM | butyrate production in toddler [3, 7]: 29.5 mM

OC[C@H]1O[C@@H](O[C@H]2[C@H](O)[C@@H](O)C(O)O[C@@H]2CO)[C@H](O)[C@@H](O)[C@H]1O (stereo partly shown) [Lactose, reference compound]
gas production between 6-24 h (rank) (gut microbes): highest | gas production at 48 h (gaz pressure) (gut microbes; Infant): 4.7 kPA | gas production at 48 h (gaz pressure) (gut microbes; Toddler): 12.8 kPA

Source: US20240316084A1, “COMPOSITIONS FOR USE IN PROMOTING ACCELERATED BUTYRATE PRODUCTION IN YOUNG CHILDREN” (SOCIETE DES PRODUITS NESTLE S.A., priority 2020, published 2024)
